# Test results from patent US11452717B2, “Small molecule activators of nicotinamide phosphoribosyltransferase (NAMPT) and uses thereof” (Sanford Burnham Prebys Medical Discovery Institute, priority 2017, dated 2022).
# Target: NAMPT enzyme (Homo sapiens (Human), UniProt P43490)
# Test: Enzyme Assay and NMN Detection (NAMPT reaction, fluorescence detection of NMN)
# Assay type: biochemical
# Conditions: Table B-2; NAMPT activation, NMN formation
# Outline: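 NMN formed was read at ex380/em460 after acetophenone/KOH derivatization and formic acid addition, using a same-day calibration curve. Final conditions: NAMPT 16 nM, nicotinamide 5 uM, PRPP 6.25 uM, ATP 120 uM, pyrophosphatase 0.04 U/ml, pH 7.5 HEPES buffer with MgCl2 and TCEP, 2 h at room temperature.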
# NAMPT enzyme, sequence (P43490 whole entry, species assumed): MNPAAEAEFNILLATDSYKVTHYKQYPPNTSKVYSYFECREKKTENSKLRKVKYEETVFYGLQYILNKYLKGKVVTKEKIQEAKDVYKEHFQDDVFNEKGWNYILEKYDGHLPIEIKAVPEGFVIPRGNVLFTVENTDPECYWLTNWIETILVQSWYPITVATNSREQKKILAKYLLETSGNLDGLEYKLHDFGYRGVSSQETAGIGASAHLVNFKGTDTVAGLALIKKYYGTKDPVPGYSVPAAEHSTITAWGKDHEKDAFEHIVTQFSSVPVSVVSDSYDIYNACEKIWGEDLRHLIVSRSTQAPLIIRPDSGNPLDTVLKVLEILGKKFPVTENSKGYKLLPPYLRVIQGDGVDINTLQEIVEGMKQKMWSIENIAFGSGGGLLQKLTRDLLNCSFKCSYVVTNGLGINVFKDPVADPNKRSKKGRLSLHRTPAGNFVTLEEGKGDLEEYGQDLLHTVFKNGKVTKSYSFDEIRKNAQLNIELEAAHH
row,Compound,EC50 [nM]
1,"O=C(NCc1ccncc1)Nc1ccc(S(=O)(=O)N2Cc3ccccc3C2)cc1 [1-[4-(1,3-Dihydro-isoindole-2-sulfonyl)-phenyl]-3-pyridin-4-ylmethyl-urea]",100 to 2000

# Same assay, conditions: Table B-4; NAMPT activation, NMN formation
row,Compound,EC50 [nM]
1,CC(C)CN1CCC(S(=O)(=O)c2ccc(NC(=O)NCc3cn[nH]c3)cc2)CC1 [1-[4-(1-Isobutyl-piperidine-4-sulfonyl)-phenyl]-3-(1H-pyrazol-4-ylmethyl)-urea],2000 to 5000
2,CC(C)N1CCC(S(=O)(=O)c2ccc(NC(=O)NCc3cn[nH]c3)cc2)CC1 [1-[4-(1-Isopropyl-piperidine-4-sulfonyl)-phenyl]-3-(1H-pyrazol-4-ylmethyl)-urea],2000 to 5000

# Continued, values first:
row,EC50 [nM],Compound
1,100 to 2000,"Cc1ccc2c(-c3ccc(NC(=O)NCc4cn[nH]c4)cc3)nn(C)c2c1 [1-[4-(1,6-Dimethyl-1H-indazol-3-yl)-phenyl]-3-(1H-pyrazol-4-ylmethyl)-urea]"
2,< 100,CC(C)n1cc(S(=O)(=O)c2ccc(NC(=O)NCc3cn[nH]c3)cc2)cn1 [1-[4-(1-Isopropyl-1H-pyrazole-4-sulfonyl)-phenyl]-3-(1H-pyrazol-4-ylmethyl)-urea]
3,100 to 2000,Cn1nc(-c2ccc(NC(=O)NCc3cn[nH]c3)cc2)c2ccccc21 [1-[4-(1-Methyl-1H-indazol-3-yl)-phenyl]-3-(1H-pyrazol-4-ylmethyl)-urea]
4,100 to 2000,Cn1cc(S(=O)(=O)c2ccc(NC(=O)NCc3cn[nH]c3)cc2)cn1 [1-[4-(1-Methyl-1H-pyrazole-4-sulfonyl)-phenyl]-3-(1H-pyrazol-4-ylmethyl)-urea]
5,100 to 2000,"Cn1nc(-c2ccc(NC(=O)NCc3cn[nH]c3)cc2)c2cccnc21 [1-[4-(1-Methyl-1H-pyrazolo[3,4-b]pyridin-3-yl)-phenyl]-3-(1H-pyrazol-4-ylmethyl)-urea]"
6,100 to 2000,"Cn1nc(-c2ccc(NC(=O)NCc3cn[nH]c3)cc2)c2ncccc21 [1-[4-(1-Methyl-1H-pyrazolo[4,3-b]pyridin-3-yl)-phenyl]-3-(1H-pyrazol-4-ylmethyl)-urea]"
7,2000 to 5000,"Cn1nc(-c2ccc(NC(=O)NCc3cn[nH]c3)cc2)c2cnccc21 [1-[4-(1-Methyl-1H-pyrazolo[4,3-c]pyridin-3-yl)-phenyl]-3-(1H-pyrazol-4-ylmethyl)-urea]"
8,2000 to 5000,CN1CCC(S(=O)(=O)c2ccc(NC(=O)NCc3cn[nH]c3)cc2)CC1 [1-[4-(1-Methyl-piperidine-4-sulfonyl)-phenyl]-3-(1H-pyrazol-4-ylmethyl)-urea]
9,> 20000,O=C(NCc1cn[nH]c1)Nc1ccc(-c2cccc3[nH]cnc23)cc1 [1-[4-(1H-Benzoimidazol-4-yl)-phenyl]-3-(1H-pyrazol-4-ylmethyl)-urea]
10,100 to 2000,O=C(NCc1cn[nH]c1)Nc1ccc(-c2n[nH]c3ccccc23)cc1 [1-[4-(1H-Indazol-3-yl)-phenyl]-3-(1H-pyrazol-4-ylmethyl)-urea]
11,100 to 2000,"O=C(NCc1cn[nH]c1)Nc1ccc(S(=O)(=O)c2ccc(Cl)cc2Cl)cc1 [1-[4-(2,4-Dichloro-benzenesulfonyl)-phenyl]-3-(1H-pyrazol-4-ylmethyl)-urea]"

# Same assay, conditions: Table B-5; NAMPT activation, NMN formation
row,Compound,EC50 [nM]
1,O=C(NCc1cnco1)Nc1ccc(S(=O)(=O)C2CCN(C3CCOCC3)CC2)cc1 [1-Oxazol-5-ylmethyl-3-{4-[1-(tetrahydro-pyran-4-yl)-piperidine-4-sulfonyl]-phenyl}-urea],100 to 2000
2,CC(C)n1cc(S(=O)(=O)c2ccc(NC(=O)NCc3cnco3)cc2)cn1 [1-[4-(1-Isopropyl-1H-pyrazole-4-sulfonyl)-phenyl]-3-oxazol-5-ylmethyl-urea],100 to 2000
3,Cn1cc(S(=O)(=O)c2ccc(NC(=O)NCc3cnco3)cc2)cn1 [1-[4-(1-Methyl-1H-pyrazole-4-sulfonyl)-phenyl]-3-oxazol-5-ylmethyl-urea],2000 to 5000
4,CN1CCC(S(=O)(=O)c2ccc(NC(=O)NCc3cnco3)cc2)CC1 [1-[4-(1-Methyl-piperidine-4-sulfonyl)-phenyl]-3-oxazol-5-ylmethyl-urea],2000 to 5000

# Continued, values first:
row,EC50 [nM],Compound
1,100 to 2000,"Cc1ccc2c(-c3ccc(NC(=O)NCc4cnco4)cc3)nn(C)c2c1 [1-[4-(1,6-Dimethyl-1H-indazol-3-yl)-phenyl]-3-oxazol-5-ylmethyl-urea]"
2,2000 to 5000,Cn1nc(-c2ccc(NC(=O)NCc3cnco3)cc2)c2ccccc21 [1-[4-(1-Methyl-1H-indazol-3-yl)-phenyl]-3-oxazol-5-ylmethyl-urea]
3,2000 to 5000,"Cn1nc(-c2ccc(NC(=O)NCc3cnco3)cc2)c2cccnc21 [1-[4-(1-Methyl-1H-pyrazolo[3,4-b]pyridin-3-yl)-phenyl]-3-oxazol-5-ylmethyl-urea]"
4,2000 to 5000,"Cn1nc(-c2ccc(NC(=O)NCc3cnco3)cc2)c2ncccc21 [1-[4-(1-Methyl-1H-pyrazolo[4,3-b]pyridin-3-yl)-phenyl]-3-oxazol-5-ylmethyl-urea]"
5,5000 to 20000,"Cn1nc(-c2ccc(NC(=O)NCc3cnco3)cc2)c2cnccc21 [1-[4-(1-Methyl-1H-pyrazolo[4,3-c]pyridin-3-yl)-phenyl]-3-oxazol-5-ylmethyl-urea]"
6,> 20000,O=C(NCc1cnco1)Nc1ccc(-c2cccc3[nH]cnc23)cc1 [1-[4-(1H-Benzoimidazol-4-yl)-phenyl]-3-oxazol-5-ylmethyl-urea]
7,100 to 2000,O=C(NCc1cnco1)Nc1ccc(-c2n[nH]c3ccccc23)cc1 [1-[4-(1H-Indazol-3-yl)-phenyl]-3-oxazol-5-ylmethyl-urea]

# Same assay, conditions: Table B-6; NAMPT activation, NMN formation
row,Compound,EC50 [nM]
1,O=C(NCc1ccncc1)Nc1ccc(S(=O)(=O)c2ccccc2C(F)(F)F)cc1 [1-Pyridin-4-ylmethyl-3-[4-(2-trifluoromethyl-benzenesulfonyl)-phenyl]-urea],100 to 2000
2,O=C(NCc1ccncc1)Nc1ccc(S(=O)(=O)c2cccc(OC(F)(F)F)c2)cc1 [1-Pyridin-4-ylmethyl-3-[4-(3-trifluoromethoxy-benzenesulfonyl)-phenyl]-urea],< 100
3,O=C(NCc1ccncc1)Nc1ccc(S(=O)(=O)c2ccc(OC(F)(F)F)cc2)cc1 [1-Pyridin-4-ylmethyl-3-[4-(4-trifluoromethoxy-benzenesulfonyl)-phenyl]-urea],100 to 2000
4,O=C(NCc1ccncc1)Nc1ccc(S(=O)(=O)c2ncccn2)cc1 [1-Pyridin-4-ylmethyl-3-[4-(pyrimidine-2-sulfonyl)-phenyl]-urea],2000 to 5000
5,Cc1cccc(S(=O)(=O)c2ccc(NC(=O)NCc3ccncc3)cc2)c1 [1-Pyridin-4-ylmethyl-3-[4-(toluene-3-sulfonyl)-phenyl]-urea],100 to 2000
6,Cc1ccc(S(=O)(=O)c2ccc(NC(=O)NCc3ccncc3)cc2)cc1 [1-Pyridin-4-ylmethyl-3-[4-(toluene-4-sulfonyl)-phenyl]-urea],< 100
7,CC(C)CN1CCC(S(=O)(=O)c2ccc(NC(=O)NCc3ccncc3)cc2)CC1 [1-[4-(1-Isobutyl-piperidine-4-sulfonyl)-phenyl]-3-pyridin-4-ylmethyl-urea],2000 to 5000
8,CC(C)n1cc(S(=O)(=O)c2ccc(NC(=O)NCc3ccncc3)cc2)cn1 [1-[4-(1-Isopropyl-1H-pyrazole-4-sulfonyl)-phenyl]-3-pyridin-4-ylmethyl-urea],< 100
9,CC(C)N1CCC(S(=O)(=O)c2ccc(NC(=O)NCc3ccncc3)cc2)CC1 [1-[4-(1-Isopropyl-piperidine-4-sulfonyl)-phenyl]-3-pyridin-4-ylmethyl-urea],100 to 2000
10,Cn1cc(S(=O)(=O)c2ccc(NC(=O)NCc3ccncc3)cc2)cn1 [1-[4-(1-Methyl-1H-pyrazole-4-sulfonyl)-phenyl]-3-pyridin-4-ylmethyl-urea],100 to 2000
11,CN1CCC(S(=O)(=O)c2ccc(NC(=O)NCc3ccncc3)cc2)CC1 [1-[4-(1-Methyl-piperidine-4-sulfonyl)-phenyl]-3-pyridin-4-ylmethyl-urea],2000 to 5000
12,"O=C(NCc1ccncc1)Nc1ccc(S(=O)(=O)c2ccc(Cl)cc2Cl)cc1 [1-[4-(2,4-Dichloro-benzenesulfonyl)-phenyl]-3-pyridin-4-ylmethyl-urea]",100 to 2000

# Second part, the compound after the results:
row,EC50 [nM],Compound
1,100 to 2000,O=C(NCc1ccncc1)Nc1ccc(S(=O)(=O)c2cncs2)cc1 [1-Pyridin-4-ylmethyl)-3-(4-(thiazol-5-ylsulfonyl)phenyl)urea]
2,< 100,O=C(NCc1ccncc1)Nc1ccc(S(=O)(=O)c2ccccc2OC(F)(F)F)cc1 [1-Pyridin-4-ylmethyl-3-[4-(2-trifluoromethoxy-benzenesulfonyl)-phenyl]-urea]
3,100 to 2000,Cc1ccccc1S(=O)(=O)c1ccc(NC(=O)NCc2ccncc2)cc1 [1-Pyridin-4-ylmethyl-3-[4-(toluene-2-sulfonyl)-phenyl]-urea]
4,100 to 2000,"Cc1ccc2c(-c3ccc(NC(=O)NCc4ccncc4)cc3)nn(C)c2c1 [1-[4-(1,6-Dimethyl-1H-indazol-3-yl)-phenyl]-3-pyridin-4-ylmethyl-urea]"
5,100 to 2000,Cn1nc(-c2ccc(NC(=O)NCc3ccncc3)cc2)c2ccccc21 [1-[4-(1-Methyl-1H-indazol-3-yl)-phenyl]-3-pyridin-4-ylmethyl-urea]
6,5000 to 20000,"Cn1nc(-c2ccc(NC(=O)NCc3ccncc3)cc2)c2cccnc21 [1-[4-(1-Methyl-1H-pyrazolo[3,4-b]pyridin-3-yl)-phenyl]-3-pyridin-4-ylmethyl-urea]"
7,100 to 2000,"Cn1nc(-c2ccc(NC(=O)NCc3ccncc3)cc2)c2ncccc21 [1-[4-(1-Methyl-1H-pyrazolo[4,3-b]pyridin-3-yl)-phenyl]-3-pyridin-4-ylmethyl-urea]"
8,5000 to 20000,"Cn1nc(-c2ccc(NC(=O)NCc3ccncc3)cc2)c2cnccc21 [1-[4-(1-Methyl-1H-pyrazolo[4,3-c]pyridin-3-yl)-phenyl]-3-pyridin-4-ylmethyl-urea]"
9,> 20000,O=C(NCc1ccncc1)Nc1ccc(-c2cccc3[nH]cnc23)cc1 [1-[4-(1H-Benzoimidazol-4-yl)-phenyl]-3-pyridin-4-ylmethyl-urea]
10,100 to 2000,O=C(NCc1ccncc1)Nc1ccc(-c2n[nH]c3ccccc23)cc1 [1-[4-(1H-Indazol-3-yl)-phenyl]-3-pyridin-4-ylmethyl-urea]
